The results in this text go back to patent US5783201A, “Method for treating non-ocular epithelial disorders via increasing heme oxygenase levels and/or decreasing levels of arachidonic acid derivatives” (Hemogen, Inc., priority 1997, dated 1998).

This experiment deals with heme oxygenase. In words: microsomal heme oxygenase activity in CCD-860SK skin fibroblast cells. Conditions: 100 μM; CCD-860 skin fibroblast cells, collected after two hours; mean ± SD; control 294 ± 18. In kind it is cell-based, human. Here is the method: Cell line CCD-860SK is a human skin fibroblast cell line which is publicly available from the American Type Culture Collection. Cell cultures of this line were propagated in Iscove's modified Dulbecco's medium supplemented with 10% fetal bovine […]. Following propagation, they were grown in 175 cm^2 Falcon tissue culture flasks, using Iscove's modified Dulbecco's medium, supplemented with 10% (v/v) heat inactivated fetal bovine serum, 50 U penicillin/ml, 50 ug streptomycin/ml, and 2 mM glutamine. The cells were then seeded into culture flasks at a concentration of 1×10^5 cells/ml, and incubated at 37° C. in a humidified 5% CO2 /95% air chamber. After three days, old media were removed, and replaced with fresh media. […]
To measure total enzyme activity, microsomes were prepared as described by Tenhunen et al., J. Biol. Chem. 244: 6388-6394 (1969), incorporated by reference herein. The activity of microsomal heme oxygenase was then determined, using 0.5-1 mg protein in an incubation medium as described by Tenhunen et al., supra. Total protein was then determined using the classic method of Lowry et al., J. Biol. Chem. 193: […] (1951), using bovine serum albumin as standard.

For the compound `[Cl][Sn][Cl]` [SnCl2], the Heme oxygenase is given as 802 ± 49 pmol bilirubin/mg/hr.
